Legend:
Assay type in all cases: cell-based, human
monocytes = test: Stimulation of monocytic cells with an immunostimulant; conditions: for stimulation of monocytes: adherent blood monocytes of normal donors, cultured 24 or 48 hours with test product; for synergy with interferon-γ: in the presence of interferon-γ 10^3 U/ml, a dose at which IFN-γ alone was inactive
Experimental: The mononuclear cells of the circulating blood of normal donors were separated by the classical technique described by Boyum using a Ficoll gradient. After being washed, the mononuclear cells were incubated at 37° C. for 1 hour in the proportion of 5×10^6 monocytes (NSE^+ cells) per ml of culture medium, 5 ml per culture bottle. The culture medium used in this experiment was composed of RPMI 1640 to which antibiotics and HEPES buffer had been added. After one hour, the non-adherent cells were removed by washing the bottles with medium previously brought to 37 C, and the adherent cells, composed essentially of monocytes (>90%), were cultured again in the presence of different amounts of test products in a PBS medium (Dulbecco) without Ca^2+ or Mg^2+. Culturing was continued for 24 or 48 hours and the cell supernatants were then withdrawn, centrifuged, aliquoted and stored either at -80° C. or at -20° C. The culture supernatants were replaced in the bottles by the same amount of pyrogen-free distilled water to Lyse the cells. The Lysate was recovered, aliquoted and also stored at -20° C.

[1] = tested on: tumor necrosis factor (TNF) production by monocytes; test: Tumor Necrosis Factor (TNF) test on monocyte culture supernatants (toxicity on L-929 target cells); conditions: toxicity on L-929 cells with actinomycin D
Experimental: (§1) The mononuclear cells of the circulating blood of normal donors were separated by the classical technique described by Boyum using a Ficoll gradient. After being washed, the mononuclear cells were incubated at 37° C. for 1 hour in the proportion of 5×10^6 monocytes (NSE^+ cells) per ml of culture medium, 5 ml per culture bottle. The culture medium used in this experiment was composed of RPMI 1640 to which antibiotics and HEPES buffer had been added. After one hour, the non-adherent cells were removed by washing the bottles with medium previously brought to 37 C, and the adherent cells, composed essentially of monocytes (>90%), were cultured again in the presence of different amounts of test products in a PBS medium (Dulbecco) without Ca^2+ or Mg^2+. Culturing was continued for 24 or 48 hours and the cell supernatants were then withdrawn, centrifuged, aliquoted and stored either at -80° C. or at -20° C. The culture supernatants were replaced in the bottles by the same amount of pyrogen-free distilled water to Lyse the cells. The Lysate was recovered, aliquoted and also stored at -20° C. […]
The technique was sensitized by adding actinomycin D to the test. […] After 24 hours of culturing, the number of unlysed viable cells was measured by staining the plates with crystal violet and measuring the optical density of different wells on a multiscan reader.

[2] = tested on: interleukin-1 (IL-1) production by monocytes; test: Interleukin-1 (IL-1) test on monocyte culture supernatants (mouse thymocyte co-mitogenic bioassay); conditions: thymidine incorporation by C3H/HeJ mouse thymocytes with PHA
Experimental: as §1, with “cells.” for “cells. The Lysate was recovered, aliquoted and also stored at -20° C.”
This test was first described by Gery et al in 1972 [Gery et al, 1972 Potentiation of the T Lymphocyte response to mitogens. […] The results were expressed as the difference between the pulses per minute incorporated by the cultures in the presence of supernatants and the pulses per minute incorporated by the control cultures.

With `C=C(CC(N)C(=O)O)CC(NC(=O)CC[C@@H](N)C(=O)O)C(=O)O` (stereo partly drawn) [Example 1, 2-amino-6-(γ-D-glutamylamino)-4-methylene-heptanedioic acid] the stimulation of monocytes (monocytes) was “stimulated monocytes”, the “synergy with interferon-γ” value (monocytes) was “synergy” and the “TNF production by monocytes” value [1] was “stimulated”. The “IL-1 production by monocytes” value [2] was “stimulated”.

With `C=C(CC(NC(=O)CC[C@@H](N)C(=O)O)C(=O)O)CC(NC(=O)[C@H](C)N)C(=O)O` (stereo partly drawn) [Example 2, 2-(L-Alanylamino)-6-(γ-D-glutamylamino)-4-methyleneheptanedioic acid] the stimulation of monocytes (monocytes) was “stimulated monocytes”, the “synergy with interferon-γ” value (monocytes) was “synergy” and the “TNF production by monocytes” value [1] was “stimulated”. The “IL-1 production by monocytes” value [2] was “stimulated”.

B1: IFN-γ: interferon-γ (10^3 U/ml) added to monocyte cultures to test synergy (protein, UniProt P01579 24-161, looked up)
Interferon gamma: QDPYVKEAENLKKYFNAGHSDVADNGTLFLGILKNWKEESDRKIMQSQIVSFYFKLFKNFKDDQSIQKSVETIKEDMNVKFFNSNKKKRDDFEKLTNYSVTDLNVQRKAIHELIQVMAELSPAAKTGKRKRSQMLFRG
For B1, the “activity of IFN-γ alone” value (monocytes; interferon-γ 10^3 U/ml alone) was “inactive”.
